Biological target: Trx-6×His-BCL6 (human BCL6 BTB domain covering amino-acid sequence 5-129) (Homo sapiens (Human), UniProt P41182)
Assay: HTRF in vitro assay (BCL6 / BCOR-AF633 peptide)
Assay type: binding
Method: The % inhibition at each concentration was calculated by normalising FRET ratio to the appropriate high (DMSO with all reagents) and low (DMSO without BCL6) controls.

[1] = further generated data, 1 nM Trx-6×His-BCL6, 300 nM BCOR-AF633 peptide, 0.5 nM anti-6×His-Terbium cryptate
[2] = initially generated data, 10 nM Trx-6×His-BCL6, 300 nM BCOR-AF633 peptide, 1 nM anti-6×His-Terbium cryptate

| Compound | HTRF pIC50 [1] | HTRF pIC50 [2] | activity in the HTRF assay (result in words) |
| --- | --- | --- | --- |
| Cn1cc2c(n1)CN(c1ncc(Cl)c(Nc3ccc4c(c3)n(CCC(C)(C)O)c(=O)n4C)n1)CC2 [Example 42e, 5-((5-chloro-2-(2-methyl-2,4,5,7-tetrahydro-6H-pyrazolo[3,4-c]pyridin-6-yl)pyrimidin-4-yl)amino)-3-(3-hydroxy-3-methylbutyl)-1-methyl-1,3-dihydro-2H-benzo[d]imidazol-2-one] | 6.68 |  |  |
| Cn1c(=O)n(CCC(C)(C)O)c2cc(Nc3cc(N4CCC[C@H]4CO)nc4c(C#N)cnn34)ccc21 [Example 31b, (S)-7-((3-(3-hydroxy-3-methylbutyl)-1-methyl-2-oxo-2,3-dihydro-1H-benzo[d]imidazol-5-yl)amino)-5-(2-(hydroxymethyl)pyrrolidin-1-yl)pyrazolo[1,5-a]pyrimidine-3-carbonitrile] | 5.73 |  |  |
| CCC1(Cn2c(=O)n(C)c3ccc(Nc4nc(-n5ccc(C(F)(F)F)n5)ncc4Cl)cc32)CNC(=O)O1 (stereo not drawn) [Example 20o] | 6.22 |  |  |
| Cn1c(=O)n(CCC(C)(O)C(F)(F)F)c2cc(Nc3ccnc(Cl)c3C#N)ccc21 (stereo not drawn) [Example 27d, 2-chloro-4-((1-methyl-2-oxo-3-(4,4,4-trifluoro-3-hydroxy-3-methylbutyl)-2,3-dihydro-1H-benzo[d]imidazol-5-yl)amino)nicotinonitrile] | 5.70 |  |  |
| CNC(=O)c1cc(Nc2ccc3c(c2)n(CCC(C)C(=O)OC)c(=O)n3C)c(C#N)c(Cl)n1 (stereo not drawn) [Example 7a, Methyl 4-[6-[[2-chloro-3-cyano-6-(methylcarbamoyl)-4-pyridyl]amino]-3-methyl-2-oxo-benzimidazol-1-yl]-2-methyl-butanoate] | 6.09 | 5.97 |  |
| COC(=O)C(C)CCn1c(=O)n(C)c2ccc(Nc3cc(C(=O)O)nc(Cl)c3C#N)cc21 (stereo not drawn) [Example 3a, 6-Chloro-5-cyano-4-[[3-(4-methoxy-3-methyl-4-oxo-butyl)-1-methyl-2-oxo-benzimidazol-5-yl]amino]pyridine-2-carboxylic acid] | 5.93 | 6.21 |  |
| CCOC(=O)c1cc(Nc2ccc3c(c2)n(CCC(C)C(=O)OC)c(=O)n3C)c(C#N)c(Cl)n1 (stereo not drawn) [Example 2b, Ethyl 6-chloro-5-cyano-4-[[3-(4-methoxy-3-methyl-4-oxo-butyl)-1-methyl-2-oxo-benzimidazol-5-yl]amino]pyridine-2-carboxylate] | 6.10 | 6.19 |  |

More lines, now with the values ahead:

| HTRF pIC50 [1] | HTRF pIC50 [2] | activity in the HTRF assay (result in words) | Compound |
| --- | --- | --- | --- |
| 5.95 | 5.82 |  | CNC(=O)c1cc(Nc2ccc3c(c2)n(CCC(C)(C)O)c(=O)n3CC2CCOCC2)c(C#N)c(Cl)n1 [Example 1g, 6-chloro-5-cyano-4-[[3-(3-hydroxy-3-methyl-butyl)-2-oxo-1-(tetrahydropyran-4-ylmethyl)benzimidazol-5-yl]amino]-N-methyl-pyridine-2-carboxamide] |
| 6.85 |  |  | Cn1c(=O)n(CCC(C)(C)O)c2cc(Nc3nc(N4CCC(n5cccn5)CC4)ncc3Cl)ccc21 [Example 42i, 5-((2-(4-(1H-pyrazol-1-yl)piperidin-1-yl)-5-chloropyrimidin-4-yl)amino)-3-(3-hydroxy-3-methylbutyl)-1-methyl-1,3-dihydro-2H-benzo[d]imidazol-2-one] |
| 6.00 |  |  | CCC(C)(O)CCn1c(=O)n(C)c2ccc(Nc3nc(-n4nc(C)cc4C)ncc3Cl)cc21 (stereo not drawn) [Example 15f] |
|  |  | did not exhibit the desired activity | Cn1c(=O)n(CCC(C)(C)O)c2cc(Nc3c(Cl)cncc3Cl)ccc21 [5-((3,5-dichloropyridin-4-yl)amino)-3-(3-hydroxy-3-methylbutyl)-1-methyl-1,3-dihydro-2H-benzo[d]imidazol-2-one] |
